Results from patent publication US11883435B2, “Compositions and methods for treating a clinical condition through the use of hematopoietic stem cells” (Indiana University Research and Technology Corporation, priority 2017, dated 2024).

What was measured:
mouse bone marrow HSCs = experiment: Number of mouse bone marrow HSCs collected and processed with antioxidants or epigenetic inhibitors (flow cytometry); format: cell-based; details: collected in ambient air
mouse bone marrow HSC = details: ambient air (about 21% O2); cited from earlier work
human cord blood HSC = details: ambient air (about 21% O2); cited from earlier work

With `O=C1O[C@H]([C@@H](O)CO)C(O)=C1OP(=O)(O)O` [AAP, ascorbic acid 2-phosphate] the “increase in numbers of HSC” value (mouse bone marrow HSCs; AAP alone (0.22 mM)) was “not AAP alone, significantly increased”.

With `CC(=O)N[C@@H](CS)C(=O)O` [NAC, N-Acetyl-Cysteine] the “change in numbers of collected HSCs” value (mouse bone marrow HSCs; 1 mM NAC) was “no significant change” and the “increase in numbers of collected HSCs” value (mouse bone marrow HSCs; higher dose of NAC (3 mM)) was “no increase”.

In the case of cyclosporine A, the “numbers of HSC” value (mouse bone marrow HSC) is given as “increased numbers of HSC” and the “numbers of HSC” value (human cord blood HSC) is given as “increased numbers of HSC”.
